Experimental data: patent US10981932B2, “Macrocyclic indole derivatives” (Bayer Aktiengesellschaft, priority 2016, dated 2021)
“And” between values parts separate entries of the source, which are not always exact repeats. Equal entries are not always repeated. Structures can show the parent of a compound that is named as a salt. Where two headings read alike, the source gives them in different places.

Experiments:
MV-4-11 = assay: Anti-proliferative effect (CellTiter-Glo, 72 h), MV-4-11; format: cell-based; conditions: MV-4-11 cells, median, read-out: IC50 antiproliferation assay MV-4-11 [M] (median)
Summary of the method: (§1)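 Viable cells quantified with CellTiter-Glo after 72 h at 37 °C; rim wells excluded; day 0 plate as baseline.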

MCL-1 = MCL-1 (Homo sapiens, UniProt Q07820); assay: Protein-protein interaction assay MCL-1/Noxa BH3 peptide (MCL-1 assay), TR-FRET; format: binding; conditions: MBP-MCL-1 / Noxa BH3-derived peptide, median
Chain of MCL-1 (Q07820 whole entry): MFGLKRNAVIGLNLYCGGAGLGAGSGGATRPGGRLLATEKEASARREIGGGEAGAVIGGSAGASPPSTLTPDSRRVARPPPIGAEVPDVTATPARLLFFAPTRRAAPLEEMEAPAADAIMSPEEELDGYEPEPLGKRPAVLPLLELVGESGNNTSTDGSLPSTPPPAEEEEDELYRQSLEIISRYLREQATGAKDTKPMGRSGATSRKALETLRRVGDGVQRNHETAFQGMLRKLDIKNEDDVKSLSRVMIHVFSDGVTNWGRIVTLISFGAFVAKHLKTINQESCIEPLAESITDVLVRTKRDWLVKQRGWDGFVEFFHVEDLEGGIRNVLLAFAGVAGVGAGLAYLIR
Summary of the method: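 Displacement of the biotinylated Noxa BH3 peptide from MBP-tagged human MCL-1 (1 nM) is detected by time-resolved FRET. Compounds are tested in duplicate across eleven concentrations up to 20 μM, incubated 1 h at 22 °C and overnight at 4 °C, and IC50 is fitted with a four-parameter equation.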

A2780 = assay: Anti-proliferative effect (CellTiter-Glo, 72 h), A2780; format: cell-based; conditions: A2780 cells, median, read-out: IC50 antiproliferation assay A2780 [M] (median)
Summary of the method: as §1

SUDHL5 [1] = assay: Induction of caspase-3/7 activity (Caspase-Glo 3/7), SUDHL5; format: cell-based; conditions: caspase-3/7 induction, SUDHL5 cells, 3 h treatment, median
Summary of the method: (§2)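 Caspase-Glo 3/7 luminescence, 3 h compound exposure, 37 °C, humidified. Minus medium-only blank. EC50 fit: C0=1, plateau = reference max induction.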

SUDHL10 [2] = assay: Induction of caspase-3/7 activity (Caspase-Glo 3/7), SUDHL10; format: cell-based; conditions: caspase-3/7 induction, SUDHL10 cells, 3 h treatment, median
Summary of the method: as §2

SUDHL10 [3] = assay: Induction of cytotoxicity (CellTiter-Glo, 5 h), SUDHL10
SUDHL5 [4] = assay: Induction of cytotoxicity (CellTiter-Glo, 5 h), SUDHL5
SUDHL5 [5] = assay: Anti-proliferative effect (CellTiter-Glo, 72 h), SUDHL5; format: cell-based; conditions: SUDHL5 cells, antiproliferation, median, read-out: Antiproli SUDHL5 [M] (median)
Summary of the method: as §1

[6] = Homo sapiens, SU-DHL10, 5 h, read-out: Cytotox SUDHL10 [M] (median), SUDHL10 cells, cytotoxicity induction, CellTiter-Glo, 5 h, median
[7] = Homo sapiens, SU-DHL-5, 5 h, read-out: Cytotox SUDHL5 [M] (median), SUDHL5 cells, cytotoxicity induction, CellTiter-Glo, 5 h, median
[8] = Homo sapiens, SU-DHL-5, 72 h, 72 h
[9] = read-out: Cytotox SUDHL10 [M] (median), SUDHL10 cells, cytotoxicity induction, CellTiter-Glo, 5 h incubation, median
[10] = read-out: Cytotox SUDHL5 [M] (median), SUDHL5 cells, cytotoxicity induction, CellTiter-Glo, 5 h incubation, median
[11] = read-out: Cytotox SUDHL10 [M] (median), SUDHL10 cells, cytotoxicity induction, CellTiter-Glo, 5 h, median
[12] = read-out: Cytotox SUDHL5 [M] (median), SUDHL5 cells, cytotoxicity induction, CellTiter-Glo, 5 h, median

SMILES | IC50 (MV-4-11; Homo sapiens, MV4-11, 72 h) [M] | IC50 (MCL-1) [µM] | IC50 (A2780; Homo sapiens, A2780, 72 h) [M] | EC50 (SUDHL5 [1]; Homo sapiens, SU-DHL-5, 3 h) [µM] | EC50 (SUDHL10 [2]; Homo sapiens, SU-DHL10, 3 h) [µM] | IC50 (SUDHL10 [3]; [6]) [M] | IC50 (SUDHL5 [4]; [7]) [M] | IC50 (SUDHL5 [5]; [8]) [M] | EC50 (SUDHL5 [1]) [µM] | EC50 (SUDHL10 [2]) [µM] | IC50 (SUDHL10 [3]; [11]) [M] | IC50 (MV-4-11) [M] | IC50 (A2780) [M] | IC50 (SUDHL5 [4]; [12]) | IC50 (SUDHL5 [5]; 72 h) [M] | other results
Cc1ccc2c(CCCOc3cccc4cc(F)ccc34)c(C(=O)O)n3c2c1-c1c(nn(CCN2CCOCC2)c1C)COCCCC3 (racemic) [Example 292, (rac)-7-{3-[(6-fluoronaphthalen-1-yi)oxy]propyl}-3,4-dimethyl-2-[2-(morpholin-4-yl)ethyl]-2,10,11,12,13,15-hexahydropyrazolo[4′,3′:9,10][1,6]oxazacycloundecino[8,7,6-hi]indole-8-carboxylic Acid] | 8.52e-06 | 0.00184 | 1.58e-05 | 0.671 | 1.21 | 1.52e-06 | 1.13e-06 | 1.59e-06 |  |  |  |  |  |  |  | 
COc1c2c(nn1C)COCCCCn1c(C(=O)O)c(CCCOc3cccc4ccccc34)c3cccc-2c31 (single isomer, unassigned) [Example 208, 3-methoxy-2-methyl-7-[3-(naphthalen-1-yloxy)propyl]-2,10,11,12,13,15-hexahydropyrazolo[4′,3′:9,10][1,6]oxazacycloundecino[8,7,6-hi]indole-8-carboxylate] | 2.68e-06 | 0.00373 | 2.03e-05 |  |  |  |  |  | 2.99 | 14 |  |  |  |  |  | IC50 (SUDHL10 [3]; [9]): 9.98e-06 M; IC50 (SUDHL5 [4]; [10]): 2.63e-06 M; IC50 (SUDHL5 [5]; 72 h incubation): 3.12e-06 M
Cc1nn(C)c2c1-c1cccc3c(CCCOc4cccc5cc(C(F)(F)F)ccc45)c(C(=O)O)n(c13)CCCCOC2 [Example 364, (rac)-10,12-dimethyl-1-(3-((6-(trifluoromethyl)naphthalen-1-yl)oxy)propyl) -4,5,67,9,10-hexahydropyrazolo[4′,3′:9,10][1,6]oxaazacycloundecino[8,7,6-hi]indole-2-carboxylic Acid] | 2.42e-05 | 0.0633 | 1.69e-05 | 24.2 | > 33 | > 3.3e-05 | 1.92e-05 | 9.54e-06 |  |  | 2.04e-05 |  |  |  |  | 
Cc1nn(C)c2c1-c1cccc3c(CCCOc4cccc5ccccc45)c(C(=O)O)n(c13)CCCCCN(C)C2 [Example 237, (rac)-1,3,15-Trimethyl-7-[3-(naphthalen-1-yloxy)propyl]-1,10,11,12,13,14,15,16-octahydropyrazolo[4′,3′:4,5][1,7]diazacyclododecino[3,2,1-hi]indole-8-carboxylic Acid] | 1.35e-05 | 0.00499 | 1.9e-05 | 5.55 | 15.7 |  |  |  |  |  |  |  |  |  |  | IC50 (SUDHL10 [3]; Homo sapiens, SU-DHL10, 5 h, read-out: Cytotox SUDHL10 [M] (median), SUDHL10 cells, cytotoxicity induction, CellTiter-Glo, 5 h incubation, median): 1.18e-05 M; IC50 (SUDHL5 [4]; Homo sapiens, SU-DHL-5, 5 h, read-out: Cytotox SUDHL5 [M] (median), SUDHL5 cells, cytotoxicity induction, CellTiter-Glo, 5 h incubation, median): 6.6e-06 M; IC50 (SUDHL5 [5]; Homo sapiens, SU-DHL-5, 72 h, 72 h incubation): 5.65e-06 M
CCc1nn(C)c2c1-c1cccc3c(CCCOc4cccc5c(F)cccc45)c(C(=O)O)n(c13)CCCCOC2 (single isomer, unassigned) [Example 300, 3-ethyl-7-{3-[(5-fluoronaphthalen-1-yl)oxy]propyl}-1-methyl-1,10,11,12,13,15-hexahydropyrazolo[4′3′:9,10][1,6]oxazacycloundecino[8,7,6-hi]indole-Carboxylic Acid] |  | 0.00127 |  |  |  |  |  |  | 3.93 | 20.7 | 2.25e-05 | 2.15e-05 | > 3.3e-05 | 5.8e-06 M | 5.13e-06 | 
CCc1nn(C)c2c1-c1cccc3c(CCCOc4cccc5cc(F)ccc45)c(C(=O)O)n(c13)CCCCOC2 (single isomer, unassigned) [Example 289, (−)-3-ethyl-7-{3-[(6-fluoronaphthalen-1-yl)oxy]propyl}-1-methyl-1,10,11,12,13,15-hexahydropyrazolo[4′,3′:9,10][1,6]oxazacycloundecino[8,7,6-hi]indole-8-carboxylic Acid] |  | 0.106 |  |  |  |  |  |  | > 33 | > 33 | > 3.3e-05 | 1.89e-05 | 2.23e-05 | 2.9e-05 M and > 3.3e-05 M | 1.05e-05 | 
Cc1c2c(nn1C)CNCCCCn1c(C(=O)O)c(CCCOc3cccc4ccccc34)c3cccc-2c31 (racemic) [Example 356, (rac)-2,3-dimethyl-7-[3-(naphthalen-1-yloxy)propyl]-10,11,12,13,14,15-hexahydro-2H-pyrazolo[3′,4′:8,9][1,6]diazacycloundecino[10,11,1-hi]indole-8-carboxylic Acid] | > 3.3e-05 | 0.00943 | > 3.3e-05 | 27.8 | > 33 | > 3.3e-05 | > 3.3e-05 | 2.53e-05 | > 33 |  |  |  |  |  | > 3.3e-05 | 
Cc1ccc2c(CCCOc3cccc4cc(F)ccc34)c(C(=O)O)n3c2c1-c1c(nn(CCN2CCOCC2)c1C)COCCCC3 (single isomer, unassigned) [Example 294, (−)-7-{3-[(6-fluoronaphthalen-1-yl)oxy]propyl}-3,4-dimethyl-2-[2-(morpholin-4-yl)ethyl]-2,10,11,12,13,15-hexahydropyrazolo[4′,3′:9,10][1,6]oxazacycloundecino[8,7,6-hi]indole-8-carboxylic acid-N-ethylethanamine Salt] |  | 0.00579 |  |  |  |  |  |  | 6.95 | 10.8 | 1.08e-05 | 1.53e-05 | 1.88e-05 | 5.95e-06 M | 5.96e-06 | 
CCc1nn(C)c2c1-c1c(C)ccc3c(CCCOc4cccc5cc(F)ccc45)c(C(=O)O)n(c13)CCCCOC2 (single isomer, unassigned) [Example 268, (−)-3-ethyl-7-{3-[(6-fluoronaphthalen-1-yl)oxy]propyl}-1,4-dimethyl-1,10,11,12,13,15-hexahydropyrazolo[4′,3′:9,10][1,6]oxazacycloundecino[8,7,6-hi]indole-8-carboxylic Acid] |  | 0.0407 |  |  |  |  |  |  | > 33 | > 33 |  | 7.46e-06 | 2.29e-05 |  |  | IC50 (SUDHL10 [3]; [9]): > 3.3e-05 M; IC50 (SUDHL5 [4]; [10]): > 3.3e-05 M; IC50 (SUDHL5 [5]; 72 h incubation): 7.41e-06 M
Cc1c2c(nn1C)COCCCCn1c(C(=O)O)c(CCOc3ccc4ccccc4c3)c3cccc-2c31 (racemic) [Example 357, (rac)-2,3-dimethyl-7-[2-(naphthalen-2-yloxy)ethyl]-2,10,11,12,13,15-hexahydropyrazolo[4′,3′:9,10][1,6]oxazacycloundecino[8,7,6-hi]indole-8-carboxylic Acid] | 3.19e-05 | 0.0409 | > 3.3e-05 | > 33 | > 33 | > 3.3e-05 | > 3.3e-05 | 3.27e-05 |  |  |  |  |  |  |  | 
Cc1c2c(nn1C)COCCCCn1c(C(=O)O)c(CCCOc3cccc4cc(F)ccc34)c3cccc-2c31 (single isomer, unassigned; enantiomer 2) [Example 302, (+)-7-{3-[(6-fluoronaphthalen-1-yl)oxy]propyl}-2,3-dimethyl-2,10,11,12,13,15-hexahydropyrazolo[4′,3′:9,10][1,6]oxazacycloundecino[8,7,6-hi]indole-8-carboxylic Acid (Enantiomer 2)] |  | 0.00126 | 2.25e-05 |  |  |  |  |  | 0.674 | 4.2 | 3.49e-06 | 4.78e-06 |  | 1.05e-06 M | 1.99e-06 | 
